In test [1] the target is T1, δOR (Homo sapiens, UniProt P41143).
T1 construct: expressed in transfected cells; host or cells: HEK 293T cells, transient transfection, membrane preparation
The experiment in a line: competitive radioligand binding with [3H]diprenorphine, membranes of transfected HEK 293T cells. On the procedure:
(§1) To verify the subtype selectivity of the described compounds for µOR over δOP and κOR, respectively, the binding affinities of the described examples to the different human opioid receptors in an in-vitro test system were measured.
(§2) For the determination of receptor binding affinity competitive radioligand binding experiments were performed as described in literature (H. Huebner, C. Haubmann, W. Utz, P. Gmeiner, J. Med. Chem., 2000, 43, 756-762). In brief, HEK 293T cells were transiently transfected with the cDNAs coding for the human opioid receptor subtypes µOR, δOR, and kOR, respectively, using a solution of polyethylenimine in PBS (PEI, linear, 25 kDa, Polysciences) as transfection reagent at a 3:1 PEI to cDNA ratio (I. Fish, A. Stoessel, K. Eitel, C. Valant, S. Albold, H. Huebner, D. Moeller, M.J. Clark, R.K. Sunahara, A. Christopoulos, B.K. Shoichet, P. Gmeiner, J. Med. Chem., 2017, 60, 9239-9250). After preparation of membranes, radioligand displacement assays were run in 96-well format at a final volume of 200 µL in binding buffer (50 mM Tris-HCI, 1 mM EDTA, 5 mM MgCl2, 100 µg/mL bacitracin, 5 µg/mL soybean trypsin inhibitor, pH 7.4) with the radioligand [^3H]diprenorphine (specific activity = 31 Ci/mmol) at a final concentration of 0.20-0.30 nM. […] Unspecific binding was determined in the presence of 10 µM of the naloxone. Protein concentrations were determined employing the method of Lowry with bovine serum albumin as standard (O.H. Lowry, N.J. Rosebrough, A.L. Farr, R.J. Randall, J. Biol. Chem., 1951, 193, 265-275). The resulting competition curves of the receptor binding experiments were analyzed by nonlinear regression. The data were initially fit using a sigmoid model to provide IC50 values, which were subsequently transformed to Ki values according to the equation of Cheng and Prusoff (Y.-C. Cheng, W. H. Prusoff, Biochem. Pharmacol., 1973, 22, 3099-3108). Three to seven experiments per compound were performed, with each concentration in triplicate.

Test [2] addresses T2, κOR (Homo sapiens, UniProt P41145).
T2 construct: expressed in transfected cells; host or cells: HEK 293T cells, transient transfection, membrane preparation
Described as above. On the procedure: as §1
After preparation of membranes, radioligand displacement assays were run in 96-well format at a final volume of 200 µL in binding buffer (50 mM Tris-HCI, 1 mM EDTA, 5 mM MgCl2, 100 µg/mL bacitracin, 5 µg/mL soybean trypsin inhibitor, pH 7.4) with the radioligand [^3H]diprenorphine (specific activity = 31 Ci/mmol) at a final concentration of 0.20-0.30 nM. […] Unspecific binding was determined in the presence of 10 µM of the naloxone. […] The resulting competition curves of the receptor binding experiments were analyzed by nonlinear regression. […] Three to seven experiments per compound were performed, with each concentration in triplicate.

Test [3] deals with T3, µOR (Homo sapiens, UniProt P35372). Put plainly: G-protein mediated signaling, IP1 accumulation assay (HTRF) in HEK-293T cells with hybrid G-protein Gαqi. On the set-up: expressed in transfected cells; host or cells: HEK-293T cells, transient transfection. Conditions: for Emax: HEK-293T, read-out: G-protein signaling Emax; for G-protein signaling EC50: mean of 3-9 experiments, 180 min at 37 °C, CBA = could not be analyzed (no dose-response curve). The format is cell-based. On the procedure:
(§3) Functionally selective drugs, which are biased towards Gi protein activation over β-arrestin signaling at the µOR are indicated to show an improved side effect profile. Thus, the characterization of the functional properties of the described examples at the µOR were performed by determination of the ligand stimulated G-protein related signaling and β-arrestin recruitment applying cell based in-vitro test systems. Full and partial agonists as well as antagonists for G protein related signaling were identified.
The determination of G-protein stimulated µOR activation was measured applying an IP1 accumulation assay as described previously (J. Kruell, S.K. Fehler, L. Hofmann, N. Nebel, S. Maschauer, O. Prante, P. Gmeiner, H. Lanig, H. Huebner, M.R. Heinrich. ChemMedChem 2020, 15, 1175-1186. C. Gentzsch, K. Seier, A. Drakopoulos, M.-L. Jobin, Y. Lanoiselee, Z. Koszegi, D. Maurel, R. Sounier, H. Huebner, P. Gmeiner, S. Granier, D. Calebiro, M. Decker. Ang. Chem. Int. Ed. 2020, 59, 2-9). In brief, HEK-293T cells were grown to confluence of approximately 70% and transiently transfected with the cDNA of the human µOR receptor and the hybrid G-protein Gαqi. After one day cells were seeded into 384-well microplates. For testing cells were incubated with test compounds (final range of concentration from 1 pM up to 10 µM) for 180 min at 37 °C followed by addition of detection reagents. Time resolved fluorescence resonance energy transfer (HTRF) was determined using a microplate reader. Each compound was tested in duplicates in 3-9 individual experiments in comparison to the reference compound DAMGO. The resulting dose response curves were analyzed by nonlinear regression using the algorithms in PRISM 6.0 (GraphPad software, San Diego, CA), fitted with a sigmoid model and normalized to basal activity (0 %) and the maximal effect caused by the reference full agonist DAMGO (100 %).
(§4) In the above table, the numbers indicate mean EC50 values in nM and Emax values relative to the full effect of reference agonist DAMGO [=100%], respectively and are derived from 3-9 individual experiments for G-protein signaling and 3-8 tests for arrestin recruitment. ND = not determined.
(Time-resolved FRET reads energy transfer from a long-lived donor to a nearby acceptor.)

In test [4] the target is T3, µOR. Put plainly: competitive radioligand binding with [3H]diprenorphine, membranes of transfected HEK 293T cells. On the set-up: expressed in transfected cells; host or cells: HEK 293T cells, transient transfection, membrane preparation. The procedure: as §1, §2
Test [5] addresses T3, µOR. Put plainly: β-arrestin-2 recruitment, enzyme-fragment complementation assay in HEK-293 cells. The test is classed as cell-based. On the set-up: expressed in transfected cells; host or cells: HEK-293 cells stably expressing EA-tagged β-arrestin-2, transiently transfected with µOR-PK1. Conditions: for Emax: HEK293, relative to the full effect of reference agonist DAMGO [=100%]; for β-arrestin recruitment EC50: mean of 3-8 tests, 90 min incubation, CBA = could not be analyzed (no dose-response curve). On the procedure:
as §3
Measurement of β-arrestin-2 recruitment was done applying an enzyme-fragment complementation assay as described previously (C. Gentzsch, K. Seier, A. Drakopoulos, M.-L. Jobin, Y. Lanoiselee, Z. Koszegi, D. Maurel, R. Sounier, H. Huebner, P. Gmeiner, S. Granier, D. Calebiro, M. Decker. Ang. Chem. Int. Ed. 2020, 59, 2-9. J. Hellmann, M. Drabek, J. Yin, J. Gunera, T. Proell, F. Kraus, C.J. Langmead, H. Huebner, D. Weikert, P. Kolb, D.M. Rosenbaum, P. Gmeiner. PNAS 2020, 117, 18059-18067). In brief, HEK-293 cells stably expressing the enzyme acceptor (EA) tagged β-arrestin-2 fusion protein were transiently co-transfected with the ProLink tagged µOR-PK1 After 24 h cells were transferred into 384-well microplates and cultured for further 24 h. To start arrestin recruitment compounds were added to the cells to get a final concentration in a range of 10 pM to 100 µM. After incubation for 90 min reaction was stopped by addition of detection mix. Chemiluminescence was determined in duplicates (3-8 individual experiments for each compound in comparison to the reference agonist DAMGO). Data analysis was done as described above.
as §4
(Activated receptors often draw arrestin, which recruitment assays turn into a signal.)

The mark [6] stands for this setting: radioligand [3H]diprenorphine, number in brackets = number of experiments, read-out: mean Ki value κOR.

Read-outs that look alike come from different tables or passages of the source.

For `CN(C)[C@H](CNC(=O)/C=C/c1ccsc1)Cc1ccc(O)cc1` [Example 19, (S,E)-N-(2-(Dimethylamino)-3-(4-hydroxyphenyl)propyl)-3-(thiophen-3-yl)acrylamide], the Ki in test [1] turned out to be 59 nM; in test [2] (setting [6]) it was 130 nM; in test [4] it was 8.5 nM. In test [3], this molecule yielded an EC50 of 7.5 nM. For the same molecule, the figures for the Emax in test [3] and in test [5] were 53% and below 5%, respectively. Besides, the “β-arrestin recruitment EC50” value in test [5] is “CBA”.

On to `C/C(=C\c1ccccc1)C(=O)NC[C@H](Cc1ccc(O)cc1)N(C)C` [Example 4, (S,E)-N-(2-(Dimethylamino)-3-(4-hydroxyphenyl)propyl)-2-methyl-3-phenylacrylamide], for which the Ki in test [1] was 49 nM; in test [2] (setting [6]), 110 nM; in test [4], 46 nM. This molecule yielded an EC50 in test [3] of 17 nM. Besides, the Emax was 62% in test [3] and below 5% in test [5]. Also, the “β-arrestin recruitment EC50” value in test [5] is listed as “CBA”.

In test [2], `CN(C)[C@H](CNC(=O)/C=C/c1cccc2ccccc12)Cc1ccc(O)cc1` [Example 6, (S,E)-N-(2-(Dimethylamino)-3-(4-hydroxyphenyl)propyl)-3-(naphthalen-1-yl)acrylamide] yielded a Ki of 180 nM. For the same molecule, the EC50 in test [3] is 20 nM. In test [5], the Emax is below 5% and the “β-arrestin recruitment EC50” value is on record as “CBA”.

Consider `CN(C)[C@H](COC(=O)C=Cc1ccccc1)Cc1ccc(O)cc1` (stereo in doubt) [Comparative Example 2, (S)-2-(Dimethylamino)-3-(4-hydroxyphenyl)propyl cinnamate, reference compound], for which the inhibitory constant (Ki) came to 860 nM in test [1], 320 nM in test [2] and 230 nM in test [4].

In the case of `Cc1cc(O)cc(C)c1C[C@H](N)CNC(=O)/C=C/c1cccc(C(F)(F)F)c1` [Example 11, (S,E)-N-(2-Amino-3-(4-hydroxy-2,6-dimethylphenyl)propyl)-3-(3-(trifluoromethyl)phenyl)acrylamide formiate], the figures for the Ki in test [1], in test [2] and in test [4] were 360 nM, 220 nM and 19 nM, respectively. Besides, in test [3], the Emax was below 5%. For the same molecule, the “G-protein signaling EC50” value in test [3] is recorded as “CBA”.

Turning to `Cc1cccc(/C=C/C(=O)NC[C@H](Cc2ccc(O)cc2)N(C)C)c1` [Example 13, (S,E)-N-(2-(Dimethylamino)-3-(4-hydroxyphenyl)propyl)-3-(m-tolyl)acrylamide], the Ki in test [1] (radioligand [3H]diprenorphine, number in brackets = number of experiments, read-out: mean Ki value δOR) is 300 nM; in test [2] (setting [6]), 500 nM; in test [4] it was 26 nM. In test [3], this molecule returned an EC50 of 41 nM. Moreover, the Emax in test [3] worked out at 78%.

Turning to `CN(C)[C@H](CNC(=O)/C=C/c1ccc(F)c(C(F)(F)F)c1)Cc1ccc(O)cc1` [Example 16, (S,E)-N-(2-(Dimethylamino)-3-(4-hydroxyphenyl)propyl)-3-(4-fluoro-3-(trifluoromethyl)phenyl)acrylamide formiate], the Ki in test [1] was determined as 250 nM; in test [2], 600 nM; in test [4], 23 nM. The concentration giving a half-maximal response (EC50) in test [3] came to 40 nM. In addition, the Emax in test [3] came out at 102%.

As for `CN[C@H](CNC(=O)/C=C/c1cccc(C(F)(F)F)c1)Cc1c(C)cc(O)cc1C` [Example 12, (S,E)-N-(3-(4-Hydroxy-2,6-dimethylphenyl)-2-(methylamino)propyl)-3-(3-(trifluoromethyl)phenyl)acrylamide formiate], the Ki in test [1] amounted to 310 nM; in test [2], 310 nM; in test [4], 12 nM. Further, the Emax in test [3] was below 5%. In addition, in test [3], the “G-protein signaling EC50” value is “CBA”.

For `CN(C)[C@](C)(CNC(=O)C=Cc1ccccc1)Cc1ccc(O)cc1` (stereo in doubt) [Example 5, (S)-N-(2-(Dimethylamino)-3-(4-hydroxyphenyl)-2-methylpropyl)cinnamamide], the Ki in test [1] came to 1300 nM; in test [2], 970 nM; in test [4], 310 nM.

Regarding `CN(C)[C@H](COC(=O)NCCc1ccsc1)Cc1ccc(O)cc1` [Comparative Example 1, (S)-2-(Dimethylamino)-3-(4-hydroxyphenyl)propyl (2-(thiophen-3-yl)ethyl)carbamate formiate, reference compound], the values for the Ki in test [1], in test [2] and in test [4] were 3000 nM, 3300 nM and 2400 nM, respectively.

Regarding `CN(C)[C@H](CNC(=O)/N=N/c1ccccc1)Cc1ccc(O)cc1` [Comparative Example 3, (S,E)-N-(2-(Dimethylamino)-3-(4-hydroxyphenyl)propyl)-2-phenyldiazene-1-carboxamide formiate, reference compound], the values for the Ki in test [1], in test [2] and in test [4] were 630 nM, 540 nM and 66 nM, respectively.

A word on the Ki: it is the equilibrium dissociation constant of an inhibitor or competing ligand from its target. The term EC50 denotes the concentration at which the effect is half-maximal. Read a low EC50 as higher potency in that assay. Usually Emax stands for the maximal effect, on the per cent scale that the assay sets.
